# Source: US7786160B2, “Combination of selected analgesics and COX-II inhibitors” (Gruenenthal GmbH, priority 2002, dated 2010)
# Read-outs that look alike come from different tables or passages of the source.
# Columns and labels:
# Type in all cases: in vivo
# rat [1] = assay: Writhing test (acetic acid, model for acute pain); conditions: peroral, substance alone
# Description: The writhing test is a modification of the method of Schmauss C and Yaksh TL, J Pharmacol Exp Ther 228: 1-12 (1984) and a model for acute pain.
# 9% acetic acid was administered to the animals intraperitoneally as a pain stimulus. This was administered 30 min (test substance perorally) or 10 min (test substance intravenously) after the administration of the test substance. The pain-induced writhing reactions were recorded 10 to 35 min after the administration of acetic acid. […] Pain expressions, such as a slanting body angle when the animal stands upright, frequent cleaning of the belly or arching of the back without stretching of the rear limbs, were thus included in the evaluation.
# The animals that had been treated with the substance were compared with a control group, which had been given physiological saline solution. The group contained 10 animals (n=10).
# mouse = assay: Formalin test (chronic pain component), mouse; conditions: peroral, substance alone
# Description: (§1) The formalin test (Dubuisson, D. and Dennis, S. G., 1977, Pain, 4, 161 to 174) is a model for acute and chronic pain. In the tests presented here, the chronic pain component was evaluated.
# (§2) By means of a single formalin injection into the dorsal side of a hind paw of test animals that were able to move freely, a biphasic nociceptive reaction, which was detected by the observation of three clearly distinguishable behavioural patterns, was induced.
# (§3) Formalin having a volume of 20 μl and a concentration of 1% was administered subcutaneously into the dorsal side of the right hind paw of each animal. The specific behavioural changes, such as raising and shaking of the paw, weight loss in the animal and biting and licking reactions, were continuously observed and registered for up to 60 min after the formalin administration. The behavioural changes were weighted differently (a score of 0 to 3) and a pain rate (PR) calculated having the general formula: PR=[(T0×0)+(T1×1)+(T2×2)+(T3×3)/180.
# (§4) The group contained 10 animals (n=10).
# rat [2] = assay: Formalin test (chronic pain component), rat; conditions: peroral, substance alone
# Description: as §1, §2, §3, §4
# rat [3] = assay: Randall-Selitto test (yeast oedema, model for inflammatory pain); conditions: for effect of compound A with COX-II inhibitor (Rofecoxib or Celecoxib) compared with additive (in words): staggered administration, Rofecoxib or Celecoxib 1 hour prior to compound A
# Description: The Randell-Selitto test of Randall and Selitto (Arch. Int. Pharmacodyn., 1957, 111: 409 to 419) is a model for inflammatory pain.
# By means of the injection of 0.1 ml 20% baking yeast suspension ventrally into a hind paw an oedema was induced, on which pain was generated 4 hours later by continuously increasing pressure with a stamp (2 mm tip diameter). The measured value to be determined and at the same time also the end point of the pain test was the pressure at which the vocalisation reaction of the animal occurred. The percentage maximum possible effect (%MPE) was calculated. The maximum pressure of the stamp was 250 g. The group size was n=10.
# The theoretical additive value was calculated by adding the mean values from the individual tests of the test substance and COX-II inhibitor. The corresponding standard deviation of the theoretical additive mean value was calculated from the addition of the variances.
# [4] = All listed animal models together (acute, chronic and inflammatory pain); conditions: simultaneous administration with a selective COX-II inhibitor (Rofecoxib or Celecoxib), chronic and inflammatory pain (Table 1)
# Description: 1, 4, 2 and 2 (Randall-Selitto test). In these tests, either Rofecoxib or Celecoxib was administered 1 hour prior to the administration of the selected analgesic (compound A). In a few tests, Rofecoxib was administered as the final preparation Vioxx and Celecoxib as Celebrex.
# [5] = read-out: ED50 [mg/kg] of compound A
# [6] = read-out: ED50 [mg/kg] of COX-II inhibitor
smiles,measurement,setting,value
"CC[C@@H](c1cccc(O)c1)[C@@H](C)CN(C)C.Cl [Compound 2, (1R,2R)-3-(3-dimethylamino-1-ethyl-2-methyl-propyl)-phenol; hydrochloride]",ED50,rat [1]; [5],33 mg/kg
same,ED50,mouse; [5],34.6 mg/kg
same,ED50,rat [2]; [5],18 mg/kg
same,% effect of compound A,"rat [3]; Table 1, staggered administration series, compound A alone 31 mg/kg peroral",20.0%
same,% effect of compound A,"rat [3]; Table 1, staggered administration series, compound A alone 46 mg/kg peroral",32.6%
same,% effect of compound A,"rat [3]; fixed dose combination (not staggered), compound A alone 31 mg/kg peroral, %MPE",13.3%
same,effect of compound A with COX-II inhibitor (Rofecoxib or Celecoxib) compared with additive (in words),rat [3],clear effect-increasing supra-additive effect
"CC[C@H](c1cccc(O)c1)[C@H](C)CN(C)C.Cl [Compound 3, (1S,2S)-3-(3-dimethylamino-1-ethyl-2-methyl-propyl)-phenol; hydrochloride]",% effect of compound A,"rat [3]; Table 4, staggered series, compound A alone 21.5 mg/kg peroral",22.8%
"Cc1ccc(-c2cc(C(F)(F)F)nn2-c2ccc(S(N)(=O)=O)cc2)cc1 [Compound 101, Celecoxib, reference compound]",ED50,mouse; [6],38.5 mg/kg
same,ED50,rat [2]; [6],154 mg/kg
same,% effect of COX-II inhibitor,"rat [3]; fixed dose combination (not staggered), COX-II inhibitor alone 215 mg/kg peroral, %MPE",9.8%
"CN(C)C[C@@H]1CCCC[C@H]1c1cccc(O)c1.Cl [Compound 1, (1R,2R)-3-(2-dimethylaminomethyl-cyclohexyl)-phenol; hydrochloride]",% effect of compound A,"rat [3]; Table 3, staggered series, compound A alone 46.4 mg/kg peroral",26.2%
same,effect of compound A with COX-II inhibitor (Rofecoxib or Celecoxib) compared with additive (in words),rat [3],clear effect-increasing supra-additive effect
same,effect in comparison to the theoretically calculated purely additive effect,[4],intensification of effect
COc1cccc([C@@]2(O)C[C@H](O)CC[C@@H]2CN(C)C)c1.Cl (racemic) [Compound 4],% effect of compound A,"rat [3]; Table 2, staggered series, compound A alone 68.1 mg/kg peroral, 15-75 min after administration of compound No. 4",85.4%
same,% effect of compound A,"rat [3]; Table 2, staggered series, compound A alone 68.1 mg/kg peroral, 75-90 min after administration of compound No. 4",45.2%
same,effect of compound A with COX-II inhibitor (Rofecoxib or Celecoxib) compared with additive (in words),rat [3],clear effect-increasing supra-additive effect
"CS(=O)(=O)c1ccc(C2=C(c3ccccc3)C(=O)OC2)cc1 [Compound 102, Rofecoxib, reference compound]",ED50,rat [1]; [6],60.1 mg/kg
